Test results taken from patent US8791108B2, “Inhibitors of human immunodeficiency virus replication” (priority 2011, dated 2014).
Like-named read-outs stand apart in the source and are kept apart here.

Tested on: recombinant NL-Rluc virus
Test: Inhibition of HIV replication (NL-RLuc luciferase reporter virus, MT-2 cells)
Type: cell-based
Settings: Human immunodeficiency virus 1, MT2, 120 h

Compound | EC50 (read-out: Activity) [µM] | EC50 (read-out: EC50 μM) [µM]
CCN1CCN(C(=O)c2cc3nc(C)c([C@H](OC(C)(C)C)C(=O)O)c(-c4cc(F)c5c(c4C)CCCO5)n3n2)CC1 [Example 83, (2S)-2-(tert-butoxy)-2-(2-(4-ethylpiperazine-1-carbonyl)-7-(8-fluoro-5-methylchroman-6-yl)-5-methylpyrazolo[1,5-a]pyrimidin-6-yl)acetic acid] | > 1 | –
Cc1nc2cc(C(=O)Nc3cc(-c4ccccc4)nn3C)nn2c(-c2cc(F)c3c(c2C)CCCO3)c1[C@H](OC(C)(C)C)C(=O)O [Example 84, (2S)-2-(tert-butoxy)-2-(7-(8-fluoro-5-methylchroman-6-yl)-5-methyl-2-((1-methyl-3-phenyl-1H-pyrazol-5-yl)carbamoyl)pyrazolo[1,5-a]pyrimidin-6-yl)acetic acid] | < 0.1 | –
Cc1nccc(-c2cccc(NC(=O)c3cc4nc(C)c([C@H](OC(C)(C)C)C(=O)O)c(-c5cc(F)c6c(c5C)CCCO6)n4n3)c2)n1 [Example 85] | < 0.1 | 0.016
Cc1nc2cc(C(=O)N3CCC(c4ccc(Cl)cc4)CC3)nn2c(-c2cc(F)c3c(c2C)CCCO3)c1[C@H](OC(C)(C)C)C(=O)O [Example 86, (2S)-2-(tert-butoxy)-2-(2-(4-(4-chlorophenyl)piperidine-1-carbonyl)-7-(8-fluoro-5-methylchroman-6-yl)-5-methylpyrazolo[1,5-a]pyrimidin-6-yl)acetic acid] | < 0.1 | –
Cc1nc2cc(C(=O)N3CCN(c4ccc(F)cc4)CC3)nn2c(-c2cc(F)c3c(c2C)CCCO3)c1[C@H](OC(C)(C)C)C(=O)O [Example 87, (2S)-2-(tert-butoxy)-2-(7-(8-fluoro-5-methylchroman-6-yl)-2-(4-(4-fluorophenyl)piperazine-1-carbonyl)-5-methylpyrazolo[1,5-a]pyrimidin-6-yl)acetic acid] | < 0.1 | –
Cc1nc2cc(C(=O)NCCN3CCOCC3)nn2c(-c2cc(F)c3c(c2C)CCCO3)c1[C@H](OC(C)(C)C)C(=O)O [Example 88, (2S)-2-(tert-butoxy)-2-(7-(8-fluoro-5-methylchroman-6-yl)-5-methyl-2-((2-morpholinoethyl)carbamoyl)pyrazolo[1,5-a]pyrimidin-6-yl)acetic acid] | > 1 | –
Cc1nc2cc(C(=O)N(C)CCc3ccccn3)nn2c(-c2cc(F)c3c(c2C)CCCO3)c1[C@H](OC(C)(C)C)C(=O)O [Example 89, (2S)-2-(tert-butoxy)-2-(7-(8-fluoro-5-methylchroman-6-yl)-5-methyl-2-(methyl(2-(pyridin-2-yl)ethyl)carbamoyl)pyrazolo[1,5-a]pyrimidin-6-yl)acetic acid] | > 1 | –
Cc1nc2cc(C(=O)N3CCN(CCc4ccccc4)CC3)nn2c(-c2cc(F)c3c(c2C)CCCO3)c1[C@H](OC(C)(C)C)C(=O)O [Example 90, (2S)-2-(tert-butoxy)-2-(7-(8-fluoro-5-methylchroman-6-yl)-5-methyl-2-(4-phenethylpiperazine-1-carbonyl)pyrazolo[1,5-a]pyrimidin-6-yl)acetic acid] | 0.1 to 1 | –
Cc1nc2cc(C(=O)N3CCN(CCN4CCOCC4)CC3)nn2c(-c2cc(F)c3c(c2C)CCCO3)c1[C@H](OC(C)(C)C)C(=O)O [Example 91, (2S)-2-(tert-butoxy)-2-(7-(8-fluoro-5-methylchroman-6-yl)-5-methyl-2-(4-(2-morpholinoethyl)piperazine-1-carbonyl)pyrazolo[1,5-a]pyrimidin-6-yl)acetic acid] | > 1 | –
Cc1nc2cc(C(=O)N3CCN(Cc4ccc5c(c4)OCO5)CC3)nn2c(-c2cc(F)c3c(c2C)CCCO3)c1[C@H](OC(C)(C)C)C(=O)O [Example 92, (2S)-2-(2-(4-(benzo[d][1,3]dioxol-5-ylmethyl)piperazine-1-carbonyl)-7-(8-fluoro-5-methylchroman-6-yl)-5-methylpyrazolo[1,5-a]pyrimidin-6-yl)-2-(tert-butoxy)acetic acid] | 0.1 to 1 | –
Cc1nc2cc(C(=O)N3CCN(c4ccccc4)CC3)nn2c(-c2cc(F)c3c(c2C)CCCO3)c1[C@H](OC(C)(C)C)C(=O)O [Example 93, (2S)-2-(tert-butoxy)-2-(7-(8-fluoro-5-methylchroman-6-yl)-5-methyl-2-(4-phenylpiperazine-1-carbonyl)pyrazolo[1,5-a]pyrimidin-6-yl)acetic acid] | < 0.1 | –
Cc1nc2cc(C(=O)N3CCN(Cc4ccccc4)CC3)nn2c(-c2cc(F)c3c(c2C)CCCO3)c1[C@H](OC(C)(C)C)C(=O)O [Example 94, (2S)-2-(2-(4-benzylpiperazine-1-carbonyl)-7-(8-fluoro-5-methylchroman-6-yl)-5-methylpyrazolo[1,5-a]pyrimidin-6-yl)-2-(tert-butoxy)acetic acid] | 0.1 to 1 | –
Cc1nc2cc(C(=O)N3CCC(N4CCCCC4)CC3)nn2c(-c2cc(F)c3c(c2C)CCCO3)c1[C@H](OC(C)(C)C)C(=O)O [Example 95, (2S)-2-(2-([1,4′-bipiperidine]-1′-carbonyl)-7-(8-fluoro-5-methylchroman-6-yl)-5-methylpyrazolo[1,5-a]pyrimidin-6-yl)-2-(tert-butoxy)acetic acid] | > 1 | –
Cc1nc2cc(C(=O)N(C)CCc3ccccc3)nn2c(-c2cc(F)c3c(c2C)CCCO3)c1[C@H](OC(C)(C)C)C(=O)O [Example 96, (2S)-2-(tert-butoxy)-2-(7-(8-fluoro-5-methylchroman-6-yl)-5-methyl-2-(methyl(phenethyl)carbamoyl)pyrazolo[1,5-a]pyrimidin-6-yl)acetic acid] | < 0.1 | 0.077
Cc1nc2cc(C(=O)N(C)Cc3cccnc3)nn2c(-c2cc(F)c3c(c2C)CCCO3)c1[C@H](OC(C)(C)C)C(=O)O [Example 97, (2S)-2-(tert-butoxy)-2-(7-(8-fluoro-5-methylchroman-6-yl)-5-methyl-2-(methyl(pyridin-3-ylmethyl)carbamoyl)pyrazolo[1,5-a]pyrimidin-6-yl)acetic acid] | > 1 | –
Cc1nc2cc(C(=O)N(C)CCC(C)C)nn2c(-c2cc(F)c3c(c2C)CCCO3)c1[C@H](OC(C)(C)C)C(=O)O [Example 98, (2S)-2-(tert-butoxy)-2-(7-(8-fluoro-5-methylchroman-6-yl)-2-(isopentyl(methyl)carbamoyl)-5-methylpyrazolo[1,5-a]pyrimidin-6-yl)acetic acid] | < 0.1 | –
Cc1nc2cc(C(=O)NCc3cccc(-n4cccc4)c3)nn2c(-c2cc(F)c3c(c2C)CCCO3)c1[C@H](OC(C)(C)C)C(=O)O [Example 99, (2S)-2-(2-((3-(1H-pyrrol-1-yl)benzyl)carbamoyl)-7-(8-fluoro-5-methylchroman-6-yl)-5-methylpyrazolo[1,5-a]pyrimidin-6-yl)-2-(tert-butoxy)acetic acid] | < 0.1 | –
Cc1nc2cc(C(=O)NCc3cccc(N4CCOCC4)c3)nn2c(-c2cc(F)c3c(c2C)CCCO3)c1[C@H](OC(C)(C)C)C(=O)O [Example 100] | 0.1 to 1 | –
Cc1nc2cc(C(=O)NCC3CCOCC3)nn2c(-c2cc(F)c3c(c2C)CCCO3)c1[C@H](OC(C)(C)C)C(=O)O [Example 101, (2S)-2-(tert-butoxy)-2-(7-(8-fluoro-5-methylchroman-6-yl)-5-methyl-2-(((tetrahydro-2H-pyran-4-yl)methyl)carbamoyl)pyrazolo[1,5-a]pyrimidin-6-yl)acetic acid] | 0.1 to 1 | –
